Assay results: US9765091B2, “Tetrahydropyrazolo [3,4-b] azepine derivatives and their use as allosteric modulators of metabotropic glutamate receptors” (Addex Pharma S.A., priority 2010, dated 2017)

molecular target: T1, human mGluR4 (Homo sapiens, UniProt Q14833); assay: Fluorescent cell based Ca2+ mobilization assay (FLIPR) on HEK-293 cells expressing human mGluR4; settings: positive allosteric modulation, HEK-293 cells expressing hmGluR4, stimulated by EC25 glutamate; mean of at least three independent experiments in duplicate; read-out: Ca^2+ Flux* (mean EC50)
T1 construct: expressed in transfected cells
From the text: mGluR4 Assay on HEK-Expressing Human mGluR4
The compounds of the present invention are positive allosteric modulators of mGluR4 receptor. Their activity was examined on recombinant human mGluR4a receptors by detecting changes in intracellular Ca^2+ concentration, using the fluorescent Ca^2+-sensitive dye Fluo4-(AM) and a Fluorometric Imaging Plate Reader (FLIPR, Molecular Devices, Sunnyvale, Calif.).
The cDNA encoding the human metabotropic glutamate receptor (hmGluR4), (accession number NM_000841.1, NCBI Nucleotide database browser), was subcloned into an expression vector containing also the hygromycin resistance gene. In parallel, the cDNA encoding a G protein allowing redirection of the activation signal to intracellular calcium flux was subcloned into a different expression vector containing also the puromycin resistance gene. Transfection of both these vectors into HEK293 cells with PolyFect reagent (Qiagen) according to supplier's protocol, and hygromycin and puromycin treatment allowed selection of antibiotic resistant cells which had integrated stably one or more copies of the plasmids. Positive cellular clones expressing hmGluR4 were identified in a functional assay measuring changes in calcium fluxes in response to glutamate or selective known mGluR4 orthosteric agonists and antagonists. HEK-293 cells expressing hmGluR4 were maintained in media containing DMEM, dialyzed Fetal Calf Serum (10%), Glutamax™ (2 mM), Penicillin (100 units/mL), Streptomycin (100 μg/mL), Geneticin (100 μg/mL) and Hygromycin-B (40 μg/mL) and puromycin (1 μg/mL) at 37° C./5% CO2.
Human mGluR4 HEK-293 cells were plated out 24 hours prior to FLIPR^384 assay in black-walled, clear-bottomed, poly-L-ornithine-coated 384-well plates at a density of 25,000 cells/well in a glutamine/glutamate free DMEM medium containing foetal bovine serum (10%), penicillin (100 units/mL) and streptomycin (100 μg/mL) at 37° C./5% CO2.
On the day of the assay, the medium was aspirated and the cells were loaded with a 3 μM solution of Fluo4-AM (LuBioScience, Lucerne, Switzerland) in 0.03% pluronic acid. After 1 hour at 37° C./5% CO2, the non incorporated dye was removed by washing cell plate with the assay buffer and the cells were left in the dark at room temperature for […] before testing. All assays were performed in a pH 7.4 buffered-solution containing 20 mM HEPES, 143 mM NaCl, 6 mM KCl, 1 mM MgSO4, 1 mM CaCl2, 0.125 mM sulfapyrazone and 0.1% glucose.
After 10 s of basal fluorescence recording, various concentrations of the compounds of the invention were added to the cells. Changes in fluorescence levels were first monitored for 180 s in order to detect any agonist activity of the compounds. Then the cells were stimulated by an EC25 glutamate concentration for an additional 110 s in order to measure enhancing activities of the compounds of the invention. EC25 glutamate concentration is the concentration giving 25% of the maximal glutamate response.
The concentration-response curves of representative compounds of the present invention were generated using the Prism GraphPad software (Graph Pad Inc, San Diego, USA). The curves were fitted to a four-parameter logistic equation: (Y=Bottom+(Top−Bottom)/(1+10^((Log EC50−X)*Hill Slope) allowing the determination of EC50 values.
The Table 4 below represents the mean EC50 obtained from at least three independent experiments of selected molecules performed in duplicate.

T1 sequence (Q14833 33-912): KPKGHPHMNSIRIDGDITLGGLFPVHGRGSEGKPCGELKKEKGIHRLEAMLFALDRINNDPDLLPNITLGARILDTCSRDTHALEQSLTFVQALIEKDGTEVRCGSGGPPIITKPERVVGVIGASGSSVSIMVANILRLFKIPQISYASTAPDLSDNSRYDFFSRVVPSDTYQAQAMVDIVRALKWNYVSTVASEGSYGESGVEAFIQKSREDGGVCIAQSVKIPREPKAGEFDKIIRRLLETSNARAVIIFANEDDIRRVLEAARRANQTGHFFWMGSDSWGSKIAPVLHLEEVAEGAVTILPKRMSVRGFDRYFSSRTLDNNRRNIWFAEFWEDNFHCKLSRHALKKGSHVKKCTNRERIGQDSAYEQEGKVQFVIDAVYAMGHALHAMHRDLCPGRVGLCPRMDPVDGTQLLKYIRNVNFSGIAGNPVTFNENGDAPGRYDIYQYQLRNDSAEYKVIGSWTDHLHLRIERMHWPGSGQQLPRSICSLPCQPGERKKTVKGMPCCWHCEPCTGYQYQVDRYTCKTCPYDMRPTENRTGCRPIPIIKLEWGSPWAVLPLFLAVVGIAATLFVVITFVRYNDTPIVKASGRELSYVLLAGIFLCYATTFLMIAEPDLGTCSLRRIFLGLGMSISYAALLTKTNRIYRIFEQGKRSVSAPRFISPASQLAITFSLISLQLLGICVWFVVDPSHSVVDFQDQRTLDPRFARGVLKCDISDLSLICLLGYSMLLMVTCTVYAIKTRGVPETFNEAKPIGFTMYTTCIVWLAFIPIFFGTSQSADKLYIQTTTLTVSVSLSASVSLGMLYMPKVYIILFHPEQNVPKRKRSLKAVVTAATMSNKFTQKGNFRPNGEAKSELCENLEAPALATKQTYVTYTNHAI

`Cc1cc(CN2CCc3sc(Nc4ncc(F)cn4)nc3-c3c[nH]nc32)no1` [Compound 1-22, N-(5-Fluoropyrimidin-2-yl)-6-((5-methylisoxazol-3-yl)methyl)-4,5,6,8-tetrahydropyrazolo[3,4-b]thiazolo[4,5-d]azepin-2-amine] and `Fc1cnc(Nc2nc3c(s2)CCN(Cc2ccc(Cl)cn2)c2n[nH]cc2-3)nc1` [Compound 1-41, 6-((5-Chloropyridin-2-yl)methyl)-N-(5-fluoropyrimidin-2-yl)-4,5,6,8-tetrahydropyrazolo[3,4-b]thiazolo[4,5-d]azepin-2-amine] cannot be ordered by EC50: < 100 nM for the first, < 100 nM for the second.

`Fc1cnc(Nc2nc3c(s2)CCN(CCC(F)(F)F)c2n[nH]cc2-3)nc1` [Compound 1-29, N-(5-Fluoropyrimidin-2-yl)-6-(3,3,3-trifluoropropyl)-4,5,6,8-tetrahydropyrazolo[3,4-b]thiazolo[4,5-d]azepin-2-amine] and `OCCN1CCc2sc(Nc3ncc(F)cn3)nc2-c2c[nH]nc21` [Compound 1-20, 2-(2-(5-Fluoropyrimidin-2-ylamino)-4,5-dihydropyrazolo[3,4-b]thiazolo[4,5-d]azepin-6(8H)-yl)ethanol] fall in the same range of EC50: 100 to 1000 nM for the first, 100 to 1000 nM for the second.

Compared with `Fc1cnc(Nc2nc3c(s2)CCN(Cc2ccc(C(F)(F)F)cn2)c2[nH]ncc2-3)nc1` [Compound 1-62, N-(5-Fluoropyrimidin-2-yl)-6-((5-(trifluoromethyl)pyridin-2-yl)methyl)-4,5,6,7-tetrahydropyrazolo[3,4-b]thiazolo[4,5-d]azepin-2-amine], `Fc1cnc(Nc2nc3c(s2)CCN(Cc2ccc(C(F)(F)F)cc2)c2[nH]ncc2-3)nc1` [Compound 1-69, N-(5-Fluoropyrimidin-2-yl)-6-(4-(trifluoromethyl)benzyl)-4,5,6,7-tetrahydropyrazolo[3,4-b]thiazolo[4,5-d]azepin-2-amine] is higher in EC50: < 100 nM for the first, 100 to 1000 nM for the second. The first is the more potent here.

First: N#Cc1ccc(CN2CCc3sc(Nc4ncc(F)cn4)nc3-c3cn[nH]c32)cc1 [Compound 1-68, 4-((2-(5-Fluoropyrimidin-2-ylamino)-4,5-dihydropyrazolo[3,4-b]thiazolo[4,5-d]azepin-6(7H)-yl)methyl)benzonitrile]
Second: Fc1cnc(Nc2nc3c(s2)CCN(Cc2ccc(Cl)cc2)c2[nH]ncc2-3)nc1 [Compound 1-58, 6-(4-Chlorobenzyl)-N-(5-fluoropyrimidin-2-yl)-4,5,6,7-tetrahydropyrazolo[3,4-b]thiazolo[4,5-d]azepin-2-amine]
The EC50 of the first is lower: < 100 nM for the first, 100 to 1000 nM for the second.

First: COCCN1CCc2sc(Nc3ccncn3)nc2-c2c[nH]nc21 [Compound 1-55, 6-(2-Methoxyethyl)-N-(pyrimidin-4-yl)-4,5,6,8-tetrahydropyrazolo[3,4-b]thiazolo[4,5-d]azepin-2-amine]
Second: COCCN1CCc2sc(Nc3nccc(C)n3)nc2-c2c[nH]nc21 [Compound 1-7, 6-(2-Methoxyethyl)-N-(4-methylpyrimidin-2-yl)-4,5,6,8-tetrahydropyrazolo[3,4-b]thiazolo[4,5-d]azepin-2-amine]
The EC50 of the first is higher: 1000 to 10000 nM for the first, < 100 nM for the second. The second is the more potent here.

First: Cc1ccnc(Nc2nc3c(s2)CCN(CC(=O)N(C)C)c2n[nH]cc2-3)n1 [Compound 1-17, N,N-Dimethyl-2-(2-(4-methylpyrimidin-2-ylamino)-4,5-dihydropyrazolo[3,4-b]thiazolo[4,5-d]azepin-6(8H)-yl)acetamide]
Second: Cc1ccnc(Nc2nc3c(s2)CCN(CC2CC2)c2n[nH]cc2-3)n1 [Compound 1-37, 6-(Cyclopropylmethyl)-N-(4-methylpyrimidin-2-yl)-4,5,6,8-tetrahydropyrazolo[3,4-b]thiazolo[4,5-d]azepin-2-amine]
The EC50 of the first is higher: 100 to 1000 nM for the first, < 100 nM for the second.

Compared with `Cn1ncc(CN2CCc3sc(Nc4ncc(F)cn4)nc3-c3cn[nH]c32)n1` [Compound 1-52, N-(5-Fluoropyrimidin-2-yl)-6-((2-methyl-2H-1,2,3-triazol-4-yl)methyl)-4,5,6,7-tetrahydropyrazolo[3,4-b]thiazolo[4,5-d]azepin-2-amine], `Cc1cccc(CN2CCc3sc(Nc4ncc(F)cn4)nc3-c3cn[nH]c32)n1` [Compound 1-70, N-(5-Fluoropyrimidin-2-yl)-6-((6-methylpyridin-2-yl)methyl)-4,5,6,7-tetrahydropyrazolo[3,4-b]thiazolo[4,5-d]azepin-2-amine] is higher in EC50: < 100 nM for the first, 100 to 1000 nM for the second. The first is the more potent here.

`Fc1cnc(Nc2nc3c(s2)CCN(Cc2[nH]ncc2Br)c2n[nH]cc2-3)nc1` [Compound 1-57, 6-((4-Bromo-1H-pyrazol-5-yl)methyl)-N-(5-fluoropyrimidin-2-yl)-4,5,6,8-tetrahydropyrazolo[3,4-b]thiazolo[4,5-d]azepin-2-amine] and `CNCCN1CCc2sc(Nc3ncc(F)cn3)nc2-c2c[nH]nc21` [Compound 1-32, N-(5-Fluoropyrimidin-2-yl)-6-(2-(methylamino)ethyl)-4,5,6,8-tetrahydropyrazolo[3,4-b]thiazolo[4,5-d]azepin-2-amine] fall in the same range of EC50: 1000 to 10000 nM for the first, 1000 to 10000 nM for the second.

`Fc1cnc(Nc2nc3c(s2)CCN(Cc2ncccn2)c2[nH]ncc2-3)nc1` [Compound 1-49, N-(5-Fluoropyrimidin-2-yl)-6-(pyrimidin-2-ylmethyl)-4,5,6,7-tetrahydropyrazolo[3,4-b]thiazolo[4,5-d]azepin-2-amine] and `Fc1cnc(Nc2nc3c(s2)CCN(Cc2ccccc2)c2[nH]ncc2-3)nc1` [Compound 1-45, 6-Benzyl-N-(5-fluoropyrimidin-2-yl)-4,5,6,7-tetrahydropyrazolo[3,4-b]thiazolo[4,5-d]azepin-2-amine] cannot be ordered by EC50: < 100 nM for the first, < 100 nM for the second.

`Fc1cnc(Nc2nc3c(s2)CCN(CC2CCCCC2)c2n[nH]cc2-3)nc1` [Compound 1-38, 6-(Cyclohexylmethyl)-N-(5-fluoropyrimidin-2-yl)-4,5,6,8-tetrahydropyrazolo[3,4-b]thiazolo[4,5-d]azepin-2-amine] and `Fc1cnc(Nc2nc3c(s2)CCN(CC2CC2)c2n[nH]cc2-3)nc1` [Compound 1-4, 6-(Cyclopropylmethyl)-N-(5-fluoropyrimidin-2-yl)-4,5,6,8-tetrahydropyrazolo[3,4-b]thiazolo[4,5-d]azepin-2-amine] cannot be ordered by EC50: < 100 nM for the first, < 100 nM for the second.

Compared with `COc1cccc(CN2CCc3sc(Nc4ncc(F)cn4)nc3-c3cn[nH]c32)c1` [Compound 1-60, N-(5-Fluoropyrimidin-2-yl)-6-(3-methoxybenzyl)-4,5,6,7-tetrahydropyrazolo[3,4-b]thiazolo[4,5-d]azepin-2-amine], `COc1ccc(CN2CCc3sc(Nc4ncc(F)cn4)nc3-c3cn[nH]c32)nc1` [Compound 1-77, N-(5-Fluoropyrimidin-2-yl)-6-((5-methoxypyridin-2-yl)methyl)-4,5,6,7-tetrahydropyrazolo[3,4-b]thiazolo[4,5-d]azepin-2-amine] is lower in EC50: 100 to 1000 nM for the first, < 100 nM for the second. The second is the more potent here.

First: CC(c1ccc(Cl)cn1)N1CCc2sc(Nc3ncc(F)cn3)nc2-c2cn[nH]c21 (stereo not drawn) [Compound 1-81, 6-(1-(5-Chloropyridin-2-yl)ethyl)-N-(5-fluoropyrimidin-2-yl)-4,5,6,7-tetrahydropyrazolo[3,4-b]thiazolo[4,5-d]azepin-2-amine]
Second: Cc1ccccc1CN1CCc2sc(Nc3ncc(F)cn3)nc2-c2cn[nH]c21 [Compound 1-59, N-(5-Fluoropyrimidin-2-yl)-6-(2-methylbenzyl)-4,5,6,7-tetrahydropyrazolo[3,4-b]thiazolo[4,5-d]azepin-2-amine]
The EC50 of the first is lower: < 100 nM for the first, 1000 to 10000 nM for the second.

First: CC(C)c1cc(CN2CCc3nc(Nc4ncc(F)cn4)sc3-c3c[nH]nc32)no1 [Compound 1-42]
Second: Fc1cnc(Nc2nc3c(s2)CCN(CC(F)(F)F)c2[nH]ncc2-3)nc1 [Compound 1-30, N-(5-Fluoropyrimidin-2-yl)-6-(2,2,2-trifluoroethyl)-4,5,6,7-tetrahydropyrazolo[3,4-b]thiazolo[4,5-d]azepin-2-amine]
The EC50 of the first is lower: < 100 nM for the first, 100 to 1000 nM for the second.

For `Fc1cnc(Nc2nc3c(s2)CCN(CCc2ccccc2)c2[nH]ncc2-3)nc1` [Compound 1-65, N-(5-Fluoropyrimidin-2-yl)-6-phenethyl-4,5,6,7-tetrahydropyrazolo[3,4-b]thiazolo[4,5-d]azepin-2-amine], the EC50 was 100 to 1000 nM.
